# According to patent US4507287A, “Preparation and method for the treatment of acne” (priority 1983, dated 1985):
# Read-outs that look alike come from different tables or passages of the source.
# Columns and labels:
# normal skin [1] = conditions: in vivo
# Protocol: This rash, however, usually disappears shortly thereafter with no ill effects. Annals of the New York Academy of Sciences, Vol. […], (1967). S. W. Jacob, E. E. Rosenbaum, and D. C. Wood, eds., Vol. 1, Dimethyl Sulfoxide, 99 (1971), and Vol. 243, Annals of the New York Academy of Sciences, (1975). In the present invention DMSO is diluted to 70% with demineralized water before ara-A is added.
# [2] = animals and humans; cited from earlier work
# normal skin [3] = conditions: applied to skin; cited from earlier work
# acne [4] = experiment: topical treatment of acne with antibiotics mixed with DMSO; type: in vivo; conditions: antibiotic mixed with DMSO
# Description: These antibiotics including, amikacin, cefamandole, cefoxitin, erythromycin, tetracycline, tobramycin, vancomycin, lincomycin, and carbenicillin.
# rats = experiment: acute oral toxicity of ara-A in rats; type: in vivo; conditions: extrapolated from LD50 in rats and mice
# Protocol: Regarding toxicity or other side effects on the patient of the proposed preparation, extensive pharmacologic and toxicity studies on ara-A have been carried out in animals and in man. […] This dose level indicates a low order of toxicity to a single parenteral dose. The acute oral LD50 in both rats and mice is greater than […]. This amount would be equivalent to more than […] (one and two thirds pound) in an average 150 pound person. […] In the form used in the present invention and with treatment by topical application, it is highly unlikely that any toxic side effects of ara-A would be observed.
# [5] = solubility of ara-A in DMSO/water versus water; type: physicochemical; conditions: DMSO in the solvent carrier medium
# [6] = recovery of unchanged ara-A from the DMSO and water solution; type: physicochemical; conditions: under the conditions of preparation
# Protocol: There are no special procedures involved in preparing of the preparation for the treatment of acne of the present invention. The demineralized water and DMSO can be mixed first, and the ara-A (and benzocaine if used) is then dissolved in the DMSO and water solution. The ara-A can be added to the pure DMSO, and water can be added last. When water and DMSO are mixed, the solution becomes warm because there is a positive heat of solution. […] Ara-A can be recovered from the DMSO and water solution virtually 100% as unchanged ara-A.
# DNA viruses = conditions: in vitro and in vivo (animal models or man), cited from earlier work
# DNA polymerase = conditions: suppresses viral replication; cited from earlier work
# [7] = cited from earlier work
# [8] = intravenous form; cited from earlier work
# acne lesions = experiment: topical treatment of acne with ara-A and DMSO; type: in vivo; conditions: benzocaine added to ara-A/DMSO medication
# Description: Treatment of acne with the disclosed preparation should begin as soon as the first sign of the lesion (pimple) is apparent. […] The medication should be applied every two to four hours for the first two days during waking hours.
# [9] = in vivo
# Description: Also one to two percent high viscosity carboxymethylcellulose, Carbopol (manufactured by Firestone Company, Akron, Ohio), or other suitable gelling agent might be added to the mixture to provide a gel which may be preferred for topical application.
# acne [10] = conditions: oral, long-term; Plewig et al.; cited from earlier work
smiles,measurement,setting,value
"C[S+](C)[O-] [DMSO, dimethyl sulfoxide]",skin irritation at 70% DMSO,normal skin [1],usually non-irritating to normal skin
same,toxicity,[2],essentially nontoxic
same,skin reaction to undiluted DMSO,normal skin [3],sometimes may cause an itching or burning sensation with redness or rash
NCC[C@H](O)C(=O)N[C@@H]1C[C@H](N)[C@@H](O[C@H]2O[C@H](CN)[C@@H](O)[C@H](O)[C@H]2O)[C@H](O)[C@H]1O[C@H]1O[C@H](CO)[C@@H](O)[C@H](N)[C@H]1O [amikacin],effectiveness in topical treatment of acne,acne [4],effective in the topical treatment of acne
"Nc1ncnc2c1ncn2[C@@H]1O[C@H](CO)[C@@H](O)[C@@H]1O [ara-A, adenine-9- -D-arabinofuranoside]",amount equivalent to the acute oral LD50 in an average 150 pound person,rats,more than 750 grams
same,amount of ara-A dissolved versus DMSO concentration,[5],"The higher the concentration of DMSO in the solvent carrier medium, the greater is the amount of ara-A that can be dissolved"
same,chemical reaction between ara-A and DMSO,[6],no chemical reaction
same,antiviral activity,DNA viruses,active against a broad spectrum of DNA viruses
same,antiviral activity,DNA viruses; listed as Ara-A,in some cases to be effective against Herpes simplex virus
same,inhibition of DNA polymerase,DNA polymerase,inhibits the enzyme DNA polymerase
same,toxicity through topical application,[7],not possible to demonstrate toxicity
same,redness and irritation after topical application,[7]; in some cases,redness and slight irritation has been noted
same,side effects of massive acute overdosage,[8],without any serious side effects
CCOC(=O)c1ccc(N)cc1 [benzocaine],influence of benzocaine on effectiveness of the medication,acne lesions,does not impair the effectiveness of the medication
same,deleterious effect on the patient,[9],Nor does the benzocaine appear to have any deleterious effect on the patient
CC1(C)S[C@@H]2[C@H](NC(=O)C(C(=O)O)c3ccccc3)C(=O)N2[C@H]1C(=O)O (some centres unmarked) [carbenicillin],effectiveness in topical treatment of acne,acne [4],effective in the topical treatment of acne
Cn1nnnc1SCC1=C(C(=O)O)N2C(=O)[C@@H](NC(=O)[C@H](O)c3ccccc3)[C@H]2SC1 [cefamandole],effectiveness in topical treatment of acne,acne [4],effective in the topical treatment of acne
CO[C@@]1(NC(=O)Cc2cccs2)C(=O)N2C(C(=O)O)=C(COC(N)=O)CS[C@@H]21 [cefoxitin],effectiveness in topical treatment of acne,acne [4],effective in the topical treatment of acne
CC[C@H]1OC(=O)[C@H](C)[C@@H](O[C@H]2C[C@@](C)(OC)[C@@H](O)[C@H](C)O2)[C@H](C)[C@@H](O[C@@H]2O[C@H](C)C[C@H](N(C)C)[C@H]2O)[C@](C)(O)C[C@@H](C)C(=O)[C@H](C)[C@@H](O)[C@]1(C)O [erythromycin],effectiveness in topical treatment of acne,acne [4],effective in the topical treatment of acne
same,help in the management of acne,acne [10],help in the management of acne
CCC[C@@H]1C[C@@H](C(=O)N[C@@H]([C@H]2O[C@H](SC)[C@H](O)[C@@H](O)[C@H]2O)[C@@H](C)O)N(C)C1 [lincomycin],effectiveness in topical treatment of acne,acne [4],effective in the topical treatment of acne
same,help in the management of acne,acne [10],help in the management of acne
CN(C)C1C(=O)C(C(N)=O)=C(O)C2(O)C(=O)C3=C(O)c4c(O)cccc4C(C)(O)C3CC12 (centres unmarked) [tetracycline],effectiveness in topical treatment of acne,acne [4],effective in the topical treatment of acne
same,help in the management of acne,acne [10],help in the management of acne
NC[C@H]1O[C@H](O[C@H]2[C@H](O)[C@@H](O[C@H]3O[C@H](CO)[C@@H](O)[C@H](N)[C@H]3O)[C@H](N)C[C@@H]2N)[C@H](N)C[C@@H]1O [tobramycin],effectiveness in topical treatment of acne,acne [4],effective in the topical treatment of acne
CN[C@H](CC(C)C)C(=O)N[C@H]1C(=O)N[C@@H](CC(N)=O)C(=O)N[C@H]2C(=O)N[C@H]3C(=O)N[C@H](C(=O)N[C@H](C(=O)O)c4cc(O)cc(O)c4-c4cc3ccc4O)[C@H](O)c3ccc(c(Cl)c3)Oc3cc2cc(c3O[C@@H]2O[C@H](CO)[C@@H](O)[C@H](O)[C@H]2O[C@H]2C[C@](C)(N)[C@H](O)[C@H](C)O2)Oc2ccc(cc2Cl)[C@H]1O [vancomycin],effectiveness in topical treatment of acne,acne [4],effective in the topical treatment of acne
